Data from US20230203126A1, “A COMPOSITION COMPRISING S-ARRESTIN PEPTIDES” (WORG PHARMACEUTICALS (HANGZHOU) CO., LTD., priority 2019, published 2023).
No end group written: not given here.

Assays:
[1] = system: MHC II molecules on dendritic cells (CD11c+ cells); assay: In vivo MHC class II loading assay (DR2tg mice); design: species or system HLA-DR2-transgenic mice; conditions: 100 µg peptide s.c., spleen 2 h post injection, 72 h co-culture, vs PBS-injected control
Description: FIG. 1: Peptide 9K1K is correctly loaded on MHC class II in vivo. Response of peptide-specific CD4+ T cells towards peptide loaded in vivo on dendritic cells is shown. HLA-DR2-transgenic mice were injected subcutaneously with 100 µg of 9K1K peptide. 2 h post injection, spleens were dissected and CD11 c+ cells (dendritic cells) were isolated. These CD11c+ cells were co-cultured with peptide-specific CD4+ cells for 72 h at 37° C. IFNy was measured in the supernatant of these cultures to evaluate the response to peptide by the CD4+ T cells. (* p<0.05 Mann-Whitney U-test)
When 100 µg of peptide 9K1K was injected in DR2tg mice or when peptide 17JK or 15N3K was injected in DR3tg mice, these peptides could be detected on dendritic cells (CD11c+ cells) in the spleens of these mice 2 h post injection. Activation (IFNY production) of peptide-specific CD4+ T cells by the isolated CD11 c+ cells was used as a read-out. […]
DR3tg or DR2tg mice were injected with 100 µg of peptide in 100 µl PBS subcutaneously (s.c.) in the flank. […] After 72 hours, supernatant of these co-cultures was collected and CD4+ T cell activation was analysed by IFNy ELISA (R&D Systems, Abingdon, UK). In a parallel experiment, CD4+ T cell responses towards peptide added in vitro were assessed to make sure the T cells recognize the peptides presented by the CD11 c+ cells.

[2] = molecular target: HLA-DRA1*0101, DRB1*1501 (DR2) (Homo sapiens, UniProt P01903+P01911); assay: DR2
Description: Table printed on a drawing sheet, Figure 9
The patent's description of the figure: FIG. 9: Diverse patterns of in vitro peptide-MHC II binding for peptides 9K1, 17JK and 15N3K. Binding of peptides 9K1, 17JK and 15N3K to recombinant HLA-DRA1*0101, DRB1*0101 (DR1), DRB1*1501 (DR2), DRB1*0301 (DR3), DRB1*0401 (DR4), DRB1*1101 (DR11), DRB1*0405 (DR4*05) and DRB1*0901 (DR9) was assessed in vitro. IC50 values (µM) are presented and colour-coded per HLA-DR molecule. Low values (green) indicate strong binding, high values (red) indicate low(er) binding.
FIG. 9 depicts IC50 (µM) values of peptides 9K1K, 17JK and 15N3K binding to the indicated HLA-DR molecules and competing with a known competitor peptide. Values should be compared only within each HLA-DR molecule. Low IC50 values (green) indicate the strongest binder per HLA-DR molecule. Highest values per HLA-DR molecule (red) are indicative of the lowest binder for that HLA-DR molecule. Intermediate values are indicated in orange. […]
First copying reader's note: The sheet prints no unit; per the patent description the values are IC50 (µM) for peptide binding to the named HLA-DR molecules, with cell shading coding relative binding strength per HLA-DR molecule.
Where the first naming reader finds the target: description_of_the_figure: recombinant HLA-DRA1*0101, DRB1*0101 (DR1), DRB1*1501 (DR2)

[3] = system: S-Ag-induced cell activation (IFNy production of LN cells and splenocytes); assay: Ex vivo tolerization experiment (DR2tg mice); assay type: in vivo
Description: FIG. 4: 9K1K alone induces tolerance towards S-Ag protein in DR2tg mice. Mice were injected subcutaneously in the flank with 0,1 µg/ml, 1 µg/ml and 10 µg/ml 9K1K on days -15, -13 and -11, followed by 3 injections of 100 µg/ml on days -8, -6 and -4 (escalating dose regime). On day 0, mice were immunized subcutaneously at the base of the tail with antigen/CFA. Mice were sacrificed 10 days after immunization to measure activation of LN cells and splenocytes upon S-Ag restimulation. IFNy concentration was measured in the culture supernatant as an indication of cell activation. Data represent mean ± SEM of the concentration of IFNy for the PBS-treated mice (black lines) and 9K1K-treated mice (grey lines). Two-way ANOVA was used to measure overall treatment effects on T cell activation. Dunnett’s multiple comparisons test was used and significant differences are indicated in the graphs (** p<0.01; **** p<0.0001). The % inhibition of IFNy production as compared to the control group is indicated in the graphs. (A) Tolerization against S-Ag in LN. IFNy production expressed as IFNy concentration (pg/ml). (B) Tolerization against S-Ag in spleen. IFNy production expressed as IFN-Y concentration (pg/ml). LN, lymph nodes. Data representative of 3 independent experiments.
FIG. 8: Treatment with peptide cocktail ATX975 reduces S-Ag-induced immune cell activation in DR2tg mice more efficiently than treatment with 9K1K alone. Mice were injected subcutaneously in the flank with 0.015 nmol, 0.15 nmol and 1.5 nmol of peptide on days -15, -13 and -11 respectively, followed by 3 injections of 15 nmol peptide on days -8, -6 and -4 (dose escalation schedule). For treatment with the cocktail (ATX975) containing 3 peptides, these doses were given per peptide (reaching a total top dose of 45 nmol peptide). On day 0, mice were immunized subcutaneously at the base of the tail with antigen/CFA. Mice were sacrificed 10 days after immunization to measure activation of splenocytes upon S-Ag restimulation. […] IFN-y production expressed as IFN-y concentration (pg/ml). […]

IC50 [2]: 520 nM
Substance: KKKAFVEQVANVVLKKK-NH2 [9K1K, KKKAFVEQVANVVLKKK]
CD4+ T cell activation (IFNy) by CD11c+ cells isolated from spleen of injected mice [1]: significant CD4+ T cell activation
reduction of S-Ag-induced cell activation (IFNy) in spleens ([3]; dose escalation to 15 nmol per peptide s.c., cocktail vs single peptide, vs control mice (FIG. 8)): 51%
reduction of S-Ag-induced cell activation (IFNy) in lymph nodes ([3]; single peptide escalating dose s.c., vs PBS, 10 days after immunization (FIG. 4A)): 77%
reduction of S-Ag-induced cell activation (IFNy) in spleen ([3]; single peptide escalating dose s.c., vs PBS, 10 days after immunization (FIG. 4B)): 70%
